According to patent publication US11091769B2, “Development and use of modified plants and seeds that are resistant to herbicides and environmental stress” (Texas State University, priority 2017, dated 2021):

How the values were obtained:
[1] = test system: Arabidopsis seedlings (primary root growth); experiment: Root growth inhibition assay; format: in vivo, Arabidopsis thaliana; conditions: for root growth sensitivity of PIC30-OX lines: all four PIC30-OX lines; for primary root growth sensitivity of pic30 mutants: pic30-1, pic30-2 and pic30-3, incremental concentrations; for inhibition at 0.1 µM: 100 nM picloram; for primary root growth inhibition: media containing 10 pM picloram
Description: For root growth inhibition assays, 4-5 day old seedlings were transferred to control media and media containing indicated concentrations of different auxins. Primary root lengths were measured after 4 days of incubation, and percentage root growth inhibition was calculated.

DR5::GFP auxin sensor = experiment: Auxin induced DR5::GFP expression; format: in vivo, Arabidopsis thaliana; conditions: pic30-3 crossed with DR5::GFP; 5 day-old seedlings; 20 hours incubation
Description: To test auxin induced DR5::GFP expression, 5 day-old seedlings were transferred to control media and media containing indicated concentrations of different auxins. Plates were incubated for 20 hours at 21° C. under continuous light. Confocal images were acquired after the incubation period.
Confocal images were acquired using either 20× water immersion or 60× oil immersion lenses with Fluoview™ FV1000 laser scanning confocal microscope (Olympus). While making a quantitative comparison between one or more confocal images, similar laser intensity and transmittance light were used.

[2] = test system: Arabidopsis apical root sections (PIC30 transporter); experiment: In planta radioactive transport assay; design: species or system Arabidopsis thaliana
Description: In planta transport assays were performed according to a protocol described elsewhere (Ito and Gray, Plant Physiology 142, 63-74, 2006) with few modifications. 15 mm root sections (at root tip) from 9 day-old seedlings were excised and incubated in transport assay buffer (TAB, 20 mM MES-KOH, pH 5.6, 10 mM sucrose and 0.5 mM CaCl2) for 30 minutes. Root sections were then transferred to the TAB containing 1.5 nM of ^14C picloram and 10 pM of unlabeled picloram or 7.9 nM of ^3H IAA and incubated for 1-6 hours at room temperature. Following thorough rinsing with cold TAB buffer, root sections were transferred to scintillation vials containing 1 ml of scintillation liquid. Radioactivity was measured using scintillation counter (Beckman Coulter, Calif.).

[3] = test system: Arabidopsis seedlings and plants; experiment: In planta chlorate sensitivity test; format: in vivo, Arabidopsis thaliana
Description: For chlorate sensitivity testing at the seedling stage, seeds were plated onto either control media or media containing 1-1.5 mM sodium chlorate. Plates were incubated under continuous light at 21° C. for 9 days. After the incubation, representative images were acquired using DSLR (PENTAX) camera.
(§1) For chlorate and picloram sensitivity testing at the adult stage, 7 day-old seedlings were transferred to soil (Fafard growing mix 2) and grown under continuous light for an additional 12 days. To test chlorate sensitivity, plants were then irrigated with 1 mM sodium chlorate solution on alternating days. Chlorate induced leaf bleaching were examined and imaged after 10-12 days. To test picloram sensitivity, plants were sprayed with 200 g/ha of picloram. Images were acquired 14-18 days after the treatment.

[4] = test system: PIC30pro::PIC30-GUS expression; experiment: PIC30-GUS expression, quantitative MUG assay; format: in vivo, Arabidopsis thaliana; conditions: 5 day old PIC30pro::PIC30-GUS seedlings; 25 pM picloram; indicated time intervals
Description: To study the effect of picloram on PIC30 expression, 5 day old PIC30pro::PIC30-GUS seedlings were treated with 25 pM picloram in liquid media. They were incubated under continuous light at 21° C. without shaking, and samples were collected at different time intervals and frozen in liquid nitrogen. PIC30-GUS expression was determined through quantitative MUG assay.
Quantification of GUS expression was performed by fluorometric MUG (4-methylumbelliferyl-beta-D-glucuronide) assay following protocol described elsewhere (Parry et al. The Plant Cell 18, […], 2006) and the fluorescence was measured using a Fluorometer (Modulus, Turner Biosystems).

Arabidopsis plants = experiment: Foliar picloram sensitivity test at the adult stage; format: in vivo, Arabidopsis thaliana
Description: as §1, with “To test picloram sensitivity, plants were sprayed with 200 g/ha of picloram.” left out

Compound: O=C(O)Cc1cccc2ccccc12 [1-NAA, 1-Naphthaleneacetic acid]
- root growth sensitivity of PIC30-OX lines ([1]; 4 days incubation): wild-type sensitivity
- primary root growth sensitivity of pic30 mutants ([1]; 4 days incubation): wild type sensitivity

Compound: O=C(O)COc1ccc(Cl)cc1Cl [2,4-D, 2,4-dichlorophenoxyacetic acid]
- primary root growth sensitivity of pic30 mutants ([1]; 4 days incubation): wild type sensitivity
- DR5::GFP expression in pic30-3 (DR5::GFP auxin sensor): upregulated

Compound: O=C(O)Cc1c[nH]c2ccccc12 [IAA, indole-3-acetic acid]
- root growth sensitivity of PIC30-OX lines ([1]; 4 days incubation): wild-type sensitivity
- primary root growth sensitivity of pic30 mutants ([1]; 4 days incubation): wild type sensitivity
- DR5::GFP expression in pic30-3 (DR5::GFP auxin sensor): upregulated
- IAA uptake, wild type versus pic30-3 ([2]; 3H-IAA, 15 mm apical root sections): no difference

Compound: Nc1cc(Cl)nc(C(=O)O)c1Cl [aminopyralid]
- primary root growth sensitivity of pic30 mutants ([1]; 4 days incubation): insensitive
- DR5::GFP expression in pic30-3 (DR5::GFP auxin sensor): not

Compound: [O-][Cl+2]([O-])O [chlorate, sodium chlorate]
- chlorate sensitivity ([3]; PIC30-OX lines, adult stage, irrigated with chlorate solution): wild-type sensitivity
- chlorate sensitivity ([3]; all four PIC30-OX lines, seedling stage): hypersensitivity
- chlorate induced cotyledon and leaf bleaching ([3]; pic30-1, seedling and adult stages): pronounced cotyledon and leaf bleaching
- chlorate induced cotyledon and leaf bleaching ([3]; pic30-2, seedling and adult stages): pronounced cotyledon and leaf bleaching
- chlorate induced necrosis and leaf bleaching ([3]; pic30-3, seedling and adult stages): insensitive
- chlorate induced cotyledon and leaf bleaching ([3]; wild type, seedling (1-1.5 mM sodium chlorate, 9 days) and adult (1 mM irrigation) stages): pronounced cotyledon and leaf bleaching

Compound: Nc1c(Cl)c(Cl)nc(C(=O)O)c1Cl [picloram]
- inhibition at 0.1 µM ([1]; Arabidopsis thaliana, 96 h, PIC30-OX lines, 4 days incubation): 87 to 89%
- inhibition at 10 pM ([1]; Arabidopsis thaliana, 96 h, four PIC30-OX lines (PIC30-GFP in pic30-3), 10 pM picloram, 4 days incubation): 97 to 98%
- inhibition at 0.1 µM ([1]; Arabidopsis thaliana, 96 h, pic30-3, 4 days incubation): ~10%
- inhibition at 0.1 µM ([1]; Arabidopsis thaliana, 96 h, wild type, 4 days incubation): ~10%
- primary root growth sensitivity of pic30 mutants ([1]; 4 days incubation): highly insensitive
- primary root growth inhibition ([1]; pic30-3 mutant, 4 days incubation): 46%
- primary root growth sensitivity of pic30-1-OX lines ([1]; three independent homozygous pic30-1-OX lines in wild type background): insensitive
- primary root growth inhibition ([1]; wild type, 4 days incubation): approximately 73%
- effect on PIC30 gene expression [4]: did not have influence
- response to foliar treatment (Arabidopsis plants; PIC30-OX adult plants, 100 g/ha): hypersensitive
- response to foliar treatment (Arabidopsis plants; pic30-1, pic30-2, pic30-3 adult plants, 200 g/ha sprayed): highly insensitive
- DR5::GFP expression in pic30-3 (DR5::GFP auxin sensor): not
- picloram uptake in pic30-3 versus wild type root sections ([2]; pic30-3, 14C-picloram, 15 mm root sections of 9 day-old seedlings): significantly lower
- picloram uptake relative to wild type roots ([2]; two PIC30-OX lines, 14C-picloram, 15 mm apical root sections): 26-30 times
